In patent publication US20210308077A1, “COMBINATIONS INCLUDING BETA-ADRENORECEPTOR AGONISTS FOR TREATMENT OF PARKINSON`S DISEASE AND MOVEMENT DISORDERS” (The Brigham and Women`s Hospital, Inc., priority 2017, published 2021):
Entries after “also recorded” stand apart in the source; their conditions may differ.

How the values were obtained:
[1] = system: NPCs carrying the SNCA triplication; experiment: Resazurin viability assay in SNCA-triplication NPCs exposed to rotenone; format: cell-based, human; details: 20 μM rotenone, 20 μM clenbuterol
Procedure: Patient-derived NPCs carrying the familial SNCA triplication were generated as described previously (28). NPCs were seeded at […] in 96-well plates (Greiner Cellcoat μClear) for HTS plate reader analysis (Polarstar Omega, BMG). For experiments with toxicants and inhibitors, NPCs were cultured under the following conditions for 18 hours unless specified differently in the experiment procedures: Standard NPC growth medium, growth medium plus 20 μM rotenone (Sigma).
For the Plate Reader HTS, each experiment was conducted with 6 replicates per cell line and treatment regimen. NPCs were treated with 20 μM clenbuterol for four days. Signals from individual wells were acquired with integration of fluorescence signals over 1 second duration by bottom read in orbital mode (8-spot measurements with 2 mm radius). Data analysis was performed using BMG Mars software. For data analysis of individual experiments, the mean±SD was plotted using GraphPad7. Non-directional Student's t-test was used for direct statistical comparisons. […]
For the Resazurin assay for reduction potential by NADPH levels, NPCs were prepared as above and then loaded with 3 μM C12-Resazurin (Ex/Em: 563 nm/587 nm) (Life Technologies) in medium (see above), for 30 min at 37° C. […] Relative C12-Resazurin fluorescence intensities were normalized to Hoechst 33342 fluorescence.

[2] = system: α-synuclein protein and mRNA in substantia nigra; experiment: placebo-controlled trial in wild-type mice, Snca expression in substantia nigra; format: in vivo, mouse
Procedure: Twenty C57BL/6J male mice (8 weeks old) (Jackson Laboratory, Bar Harbor Me.) were used for the placebo-controlled trial. Mice were exposed to a 12-hour light and 12-hour dark cycle, maintained at a constant temperature of 22° C., and were cared for in accordance with the National Institutes of Health Guide for the Care and Use of Laboratory Animals. Clenbuterol was purchased from Sigma (St. Louis, Mo.). Clenbuterol (10 mg/kg, injection volume 10 ml/kg) dissolved in saline was administered to mice (N=10) intraperitoneally. Saline was administered as a vehicle treatment (N=10). Mice were euthanized by CO224 hours post-injection. Brains were removed and snap frozen immediately in dry ice. Further dissections were performed on the frozen tissue to obtain substantia nigra regions. Tissue was then stored at −80° C. until mRNA or protein extraction was performed.
Total RNA from flash-frozen mice brain tissue, rodent primary cells, human neuroblastoma cells and iPSC-derived neuronal cells was isolated using TRIzol® (Life Technologies) following the manufacturer's protocol. RNA concentration was measured using NanoDrop spectrophotometer (Thermo Fisher Scientific, Wilmington, De.). 2 μg of total RNA was reverse transcribed into cDNA using the High Capacity cDNA Reverse Transcription Kit from Applied Biosystems. Quantitative PCR was performed using TaqMan Universal PCR Master Mix (Applied Biosystems) on an ABI 7900HT instrument (Applied Biosystems) as described previously (31). […] Expression values were analyzed using the comparative threshold cycle method (31).
Protein lysis buffer containing 320 mM sucrose, 5 mM NaF, 1 mM Na3VO4, 10 mM Tris (pH 7.4), 1 mM EGTA, and 1 mM EDTA was used for mice brain tissue lysis. […] Total protein concentrations were determined by BCA assay (Thermo Scientific) according to the manufacturer's instructions. Total α-synuclein was quantified using an α-synuclein-specific sandwich ELISA. […]

[3] = pharmacokinetics mouse study (plasma and brain, LC-MS/MS); format: in vivo
Procedure: The clenbuterol pharmacokinetic (PK) study was done in wild-type C57BL/6J male mice by ChemPartner Co., LTD in Shanghai. The study was done with 4 groups of four mice; one control group and three treatment groups with clenbuterol administered via intraperitoneal injection at dosages of 1, 5 and 10 mg/kg once every 24 hours. Following completion of the administration schedule, blood samples were collected at various time points (e.g. 0.25, 2, 8, and 24 hours), from the four mice per group per time point (final time point of 24 hours post injection). Mice were sacrificed following each blood collection and brains were removed and snap frozen. Substantia nigra was utilized for SNCA mRNA and protein analysis, whereas the other portions were used for PK studies. Plasma and brain samples were analyzed by LC-MS/MS for compound concentration at each of three concentrations and at each time point. Standard pharmacokinetic parameters (e.g. AUClast, AUCINF, terminal elimination half-life (t1/2), clearance, volume of distribution, time at maximum observed plasma concentration, etc.) were determined in both plasma and brain tissueby WinNonlin V 6.2 statistics software (Pharsight Corporation, California, USA) using a non-compartmental model.

[4] = 10 mg/kg intraperitoneal, 24 hours, vs saline, n=10 per group

Question: With CC(C)(C)NCC(O)c1cc(Cl)c(N)c(Cl)c1 (stereo not shown) [clenbuterol] as the compound, how does the viability [1] read?
Answer: rescued viability

Question: What about the “endogenous α-synuclein mRNA in substantia nigra” value [2, 4] of the same compound?
Answer: lowered

Question: And the “endogenous α-synuclein protein in substantia nigra” value [2, 4]?
Answer: lowered

Question: What about the “α-synuclein protein in substantia nigra by Western blotting” value ([2]; anti-α-synuclein antibodies 2F12 and C-20) of the same compound?
Answer: confirmed by Western blotting

Question: What about the brain concentration ([3]; C57BL/6J mice, 10 mg/kg intraperitoneal vs 1 and 5 mg/kg) of the same compound?
Answer: highest

Question: And the brain/plasma ratio ([3]; C57BL/6J mice, 1, 5, or 10 mg/kg intraperitoneal, 24 hours)?
Answer: increased with doses of 1, 5, or 10 mg of drug per kilogram body weight; also recorded: highest brain/plasma ratio

Question: And the blood-brain barrier crossing ([3]; wild type C57BL/6J mice, intraperitoneal)?
Answer: crossed the blood-brain barrier
